Experimental data from patent publication US12673946B2, “Pyrimidin-4(3H)-one derivatives as TRPV4 antagonists” (RaQualia Pharma Inc., priority 2020, dated 2026).

Molecular target: T1, human TRPV4 (Homo sapiens, UniProt Q9HBA0)
T1 construct: host or cells: tetracycline-inducible Flp-In T-REx 293 cells
Assay: Hypotonicity-induced Ca2+ influx (Fluo-4, FDSS)
Assay type: cell-based
How it was run: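 Flp-In T-REx 293 cells with tetracycline-induced human TRPV4, loaded with Fluo-4 for 60 min at 25 °C. Compound added 5 min before hypotonic mannitol/CaCl2 solution. Ca2+ signal recorded for 4.5 min on FDSS.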

[1] = Flp-In T-REx 293 cells expressing human TRPV4, examples listed under heading 'Human IC50<50 nM'
[2] = Flp-In T-REx 293 cells stably expressing human TRPV4, compounds listed by potency bin (<10 nM Tables 96-1/96-2, <3 nM Table 97)

T1 sequence (Q9HBA0 whole entry): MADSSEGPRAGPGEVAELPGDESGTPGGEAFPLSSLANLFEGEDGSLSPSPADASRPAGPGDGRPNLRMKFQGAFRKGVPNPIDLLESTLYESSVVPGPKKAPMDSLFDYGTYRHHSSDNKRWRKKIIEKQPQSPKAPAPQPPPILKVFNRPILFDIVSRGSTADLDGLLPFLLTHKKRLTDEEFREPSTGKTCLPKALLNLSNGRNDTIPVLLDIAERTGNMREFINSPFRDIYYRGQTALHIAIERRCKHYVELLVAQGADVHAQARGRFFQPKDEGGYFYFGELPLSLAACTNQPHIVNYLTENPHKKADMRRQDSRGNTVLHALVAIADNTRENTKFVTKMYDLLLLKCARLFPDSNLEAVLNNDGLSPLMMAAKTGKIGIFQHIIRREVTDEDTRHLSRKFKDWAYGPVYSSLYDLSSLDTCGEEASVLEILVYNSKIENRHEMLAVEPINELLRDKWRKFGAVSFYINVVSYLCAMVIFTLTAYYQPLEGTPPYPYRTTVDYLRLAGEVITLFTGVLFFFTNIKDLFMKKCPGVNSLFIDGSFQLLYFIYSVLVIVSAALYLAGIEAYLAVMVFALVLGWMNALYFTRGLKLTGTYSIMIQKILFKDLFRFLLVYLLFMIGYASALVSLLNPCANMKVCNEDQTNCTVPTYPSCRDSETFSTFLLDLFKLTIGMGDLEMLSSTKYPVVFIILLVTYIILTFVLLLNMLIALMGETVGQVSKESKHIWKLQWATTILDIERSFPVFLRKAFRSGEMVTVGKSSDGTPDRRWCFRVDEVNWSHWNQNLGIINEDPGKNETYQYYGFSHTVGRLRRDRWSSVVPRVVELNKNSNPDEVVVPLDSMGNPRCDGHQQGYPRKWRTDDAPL

Compound | IC50 [1] [nM] | IC50 [2] [nM]
CC(C)(C)c1cccc(-c2cccc(CC(=O)N3CCCc4nc(C5(c6ccccc6)CC5)[nH]c(=O)c4C3)c2)c1 [57-4] | < 50 | < 10
CC(C)c1cccc(-c2cccc(CC(=O)N3CCCc4nc(C5(c6cccc(Cl)c6)CC5)[nH]c(=O)c4C3)c2)c1 [57-5] | < 50 | < 10
CC(C)(C)c1cccc(-c2cccc(CC(=O)N3CCCc4nc(C5(c6cccc(Cl)c6)CC5)[nH]c(=O)c4C3)c2)c1 [57-6] | < 50 | < 10
O=C(Cc1cccc(-c2cccc(C(F)(F)F)n2)c1)N1CCCc2nc(C3(c4cccc(Cl)c4)CC3)[nH]c(=O)c2C1 [57-7] | < 50 | < 10
O=C(Cc1cccc(-c2cccc(OC(F)(F)F)c2)c1)N1CCCc2nc(C3(c4cccc(Cl)c4)CC3)[nH]c(=O)c2C1 [57-8] | < 50 | < 10
O=C(Cc1cccc(-c2cc(F)cc(Cl)c2)c1)N1CCCc2nc(C3(c4cccc(Cl)c4)CC3)[nH]c(=O)c2C1 [57-9] | < 50 | < 10
O=C(N1CCCc2nc(C3(c4ccccc4)CC3)[nH]c(=O)c2C1)C(F)(F)c1cccc(-c2cccc(C(F)(F)F)c2)c1 [58-1] | < 50 | < 10
CC(C)(C)c1cccc(-c2cccc(C(F)(F)C(=O)N3CCCc4nc(C5(c6ccccc6)CC5)[nH]c(=O)c4C3)c2)c1 [58-2] | < 50 | < 10
CC(C)Oc1cccc(-c2cccc(C(F)(F)C(=O)N3CCCc4nc(C5(c6ccccc6)CC5)[nH]c(=O)c4C3)c2)c1 [58-3] | < 50 | < 10
O=C(N1CCCc2nc(C3(c4ccccc4)CC3)[nH]c(=O)c2C1)C(F)(F)c1cccc(-c2cccc(C3CC3)c2)c1 [58-4] | < 50 | < 10
O=C(N1CCCc2nc(C3(c4ccccc4)CC3)[nH]c(=O)c2C1)C(F)(F)c1cccc(-c2cccc(OC(F)(F)F)c2)c1 [58-5] | < 50 | < 10
CC(C)N(Cc1ccccc1)C(=O)c1csc(C2(c3nc4c(c(=O)[nH]3)CN(C(=O)[C@H](O)c3cccc(C(F)(F)F)c3)CCC4)CC2)c1 [59-1] | < 50 | < 10
CN(C(=O)c1csc(C2(c3nc4c(c(=O)[nH]3)CN(C(=O)[C@H](O)c3cccc(C(F)(F)F)c3)CCC4)CC2)c1)C1CCCCC1 [59-2] | < 50 | < 10
CN(Cc1ccccc1)C(=O)c1csc(C2(c3nc4c(c(=O)[nH]3)CN(C(=O)[C@H](O)c3cccc(C(F)(F)F)c3)CCC4)CC2)c1 [59-3] | < 50 | < 10
O=C(c1csc(C2(c3nc4c(c(=O)[nH]3)CN(C(=O)[C@H](O)c3cccc(C(F)(F)F)c3)CCC4)CC2)c1)N1Cc2ccccc2C1 [59-4] | < 50 | –
CC(C)N(C)C(=O)c1csc(C2(c3nc4c(c(=O)[nH]3)CN(C(=O)[C@H](O)c3cccc(C(F)(F)F)c3)CCC4)CC2)c1 [59-5] | < 50 | –
O=C(NCc1ccccc1)c1csc(C2(c3nc4c(c(=O)[nH]3)CN(C(=O)[C@H](O)c3cccc(C(F)(F)F)c3)CCC4)CC2)c1 [59-6] | < 50 | –
CN(Cc1cccc2ccccc12)C(=O)c1csc(C2(c3nc4c(c(=O)[nH]3)CN(C(=O)[C@H](O)c3cccc(C(F)(F)F)c3)CCC4)CC2)c1 [59-10] | < 50 | < 10
CN(Cc1ccc(Oc2ccccc2)cc1)C(=O)c1csc(C2(c3nc4c(c(=O)[nH]3)CN(C(=O)[C@H](O)c3cccc(C(F)(F)F)c3)CCC4)CC2)c1 [59-11] | < 50 | < 10
O=C(c1csc(C2(c3nc4c(c(=O)[nH]3)CN(C(=O)[C@H](O)c3cccc(C(F)(F)F)c3)CCC4)CC2)c1)N(Cc1ccccc1)Cc1ccccc1 [59-12] | < 50 | < 10
CN(C(=O)c1csc(C2(c3nc4c(c(=O)[nH]3)CN(C(=O)[C@H](O)c3cccc(C(F)(F)F)c3)CCC4)CC2)c1)C(c1ccccc1)c1ccccc1 [59-13] | < 50 | < 10
CC(C)N(C(=O)c1csc(C2(c3nc4c(c(=O)[nH]3)CN(C(=O)[C@H](O)c3cccc(C(F)(F)F)c3)CCC4)CC2)c1)C(C)C [59-14, (R)-5-(1-(6-(2-hydroxy-2-(3-(trifluoromethyl)phenyl)acetyl)-4-oxo-4,5,6,7,8,9-hexahydro-3H-pyrimido[5,4-c]azepin-2-yl)cyclopropyl)-N,N-diisopropylthiophene-3-carboxamide] | < 50 | < 10
CC(C)N(C(=O)c1csc(C2(c3nc4c(c(=O)[nH]3)CN(C(=O)[C@H](O)c3cccc(C(F)(F)F)c3)CCC4)CC2)c1)C1CCCCC1 [59-15] | < 50 | < 10
O=C([C@H](O)c1cccc(C(F)(F)F)c1)N1CCCc2nc(C3(c4cc(C(=O)N(Cc5ccccc5)C5CCCCC5)cs4)CC3)[nH]c(=O)c2C1 [59-16] | < 50 | < 10
CN(Cc1ccc2ccccc2c1)C(=O)c1csc(C2(c3nc4c(c(=O)[nH]3)CN(C(=O)[C@H](O)c3cccc(C(F)(F)F)c3)CCC4)CC2)c1 [59-17] | < 50 | < 10
O=C([C@H](O)c1cccc(C(F)(F)F)c1)N1CCCc2nc(C3(c4cc(C(=O)N(C5CCCCC5)C5CCCCC5)cs4)CC3)[nH]c(=O)c2C1 [59-18] | < 50 | < 10
CN(C(=O)c1csc(C2(c3nc4c(c(=O)[nH]3)CN(C(=O)[C@H](O)c3cccc(C(F)(F)F)c3)CCC4)CC2)c1)C(C)(C)C [59-19] | < 50 | –
CC(=O)c1cccc(C2(c3nc4c(c(=O)[nH]3)CN(C(=O)[C@H](O)c3cccc(C(F)(F)F)c3)CCC4)CC2)c1 [60-1, (R)-2-(1-(3-acetylphenyl)cyclopropyl)-6-(2-hydroxy-2-(3-(trifluoromethyl)phenyl)acetyl)-3,5,6,7,8,9-hexahydro-4H-pyrimido[5,4-c]azepin-4-one] | < 50 | –
